Columns and labels:
[1] = molecular target: T1, adenylosuccinate synthetase (ADSS) isolated from maize (Zea mays, UniProt O24578); test: ADSS enzyme assay (HPLC and spectrophotometric), maize ADSS; assay type: biochemical; settings: for product formation by ADSS: compound at 100 μM, maize ADSS (not shown); for time course of ADSS inhibition: spectrophotometric assay (FIG. 7, FIG. 8)
T1 construct: ADSS is obtained from 4-5 day old, etiolated seedlings of Zea mays; from tissue; host or cells: 4-5 day old etiolated maize seedlings
T1 sequence (O24578 45-484): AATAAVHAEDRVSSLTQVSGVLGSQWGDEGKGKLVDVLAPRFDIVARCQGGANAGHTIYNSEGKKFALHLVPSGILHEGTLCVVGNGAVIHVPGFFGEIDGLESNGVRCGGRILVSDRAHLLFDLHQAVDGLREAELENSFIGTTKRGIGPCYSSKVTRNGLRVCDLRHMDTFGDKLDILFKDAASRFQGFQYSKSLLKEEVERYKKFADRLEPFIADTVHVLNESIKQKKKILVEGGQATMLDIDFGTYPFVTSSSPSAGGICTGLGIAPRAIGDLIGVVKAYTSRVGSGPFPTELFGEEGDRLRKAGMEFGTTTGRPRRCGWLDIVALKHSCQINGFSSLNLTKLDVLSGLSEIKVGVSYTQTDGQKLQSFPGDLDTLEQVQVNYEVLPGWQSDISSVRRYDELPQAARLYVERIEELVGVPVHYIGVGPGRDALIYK
Procedure: (§1) ADSS is obtained from 4-5 day old, etiolated seedlings of Zea mays. Seedlings are homogenized in a Waring blender with an equal volume (grams of tissue=mls of buffer) of extraction buffer containing 50 mM EPPS, pH 7.5, 5 mM MgCl2, 0.1 mM EDTA, 5 mM sodium bisulfite, 5 mM DTT, 0.1 mM phenylmethanesulfonyl fluoride and 10% glycerol. The extract is expressed through Miracloth (Calbiochem, La Jolla, Calif.) sandwiched between layers of cheesecloth. To precipitate phenolics and nucleic acids, 0.2 to 0.4% w/v protamine sulfate is added to the extract. The extract is stirred for 30 minutes, and then centrifuged at 45,000×G for 60 minutes. The resulting supernatant is fractionated with ammonium sulfate. Proteins are retained which precipitate at concentrations of ammonium sulfate greater than 45% saturation, but less than 55% saturation. Similar methods are used to isolate ADSS from wheat germ, E. coli and rat liver. ADSS activity is further purified by subjecting the preparation to DEAE cellulose chromatography. The column is equilibrated with chromatography buffer consisting of 50 mM EPPS, pH 7.5, 10% glycerol, 0.1 mM EDTA, 5 mM MgCl2 and 1 mM DTT. After loading the enzyme preparation, the column is washed with two bed volumes of the chromatography buffer, then eluted with a linear, 10-bed-volume gradient of 0 to 0.4M KCl dissolved in the same buffer. The peak of ADSS activity elutes at a KCl concentration of about 150 mM. Fractions containing activity are pooled and the proteins concentrated by ultrafiltration. At this stage, the enzyme is suitable for high capacity screening tests that are designed to discover inhibitory compounds. Alternatively, hydrophobic interaction chromatography can be used instead of DEAE-cellulose. This material is optionally further purified by passage through a column of Sephadex G-75 equilibrated with the chromatography buffer described above. The peak of ADSS activity elutes at a retention volume corresponding to a molecular weight of approximately 50,000 Da.
ADSS is assayed by anion exchange HPLC and by a continuous spectrophotometric assay. For the former, enzyme is diluted appropriately with 50 mM EPPS, pH 8.3, 10% ethylene glycol, 10 mM potassium phosphate and 1 mM MgCl2 to a volume of 92 μL. […] Reactions are stopped by adding 1 μL of 4N HCl. 95 μL of the reaction mixture is injected to a Hamilton PRP-X100 column equilibrated with 3% acetonitrile. Reactants and products are eluted with a convex gradient (Curve=-2) to 6% 1M potassium phosphate, pH 7, and 12% 2M KCl delivered during a span of 30 min by a Perkin-Elmer 410 BIO pump. The column eluate is monitored at 270 nm using a Perkin-Elmer LC 480 diode array detector. Integrated peaks are quantified from standard curves. Identity of the products of the ADSS reaction, GDP and adenylosuccinate, are determined by comparing their retention times and spectra with those of authentic standards, purchased from Sigma Chemical Co.
For the spectrophotometric assay, reaction mixtures are the same as above, except that the volume is doubled. […] The optical density increases as AS is formed. […] This method of quantification was validated using the HPLC method.

[2] = molecular target: T2, ADSS from wheat germ (Triticum aestivum, UniProt O24396); test: ADSS enzyme assay, wheat germ ADSS; assay type: biochemical; settings: for product formation by ADSS: compound at 100 μM, wheat germ ADSS (not shown)
T2 construct: from tissue
T2 sequence (O24396 whole entry): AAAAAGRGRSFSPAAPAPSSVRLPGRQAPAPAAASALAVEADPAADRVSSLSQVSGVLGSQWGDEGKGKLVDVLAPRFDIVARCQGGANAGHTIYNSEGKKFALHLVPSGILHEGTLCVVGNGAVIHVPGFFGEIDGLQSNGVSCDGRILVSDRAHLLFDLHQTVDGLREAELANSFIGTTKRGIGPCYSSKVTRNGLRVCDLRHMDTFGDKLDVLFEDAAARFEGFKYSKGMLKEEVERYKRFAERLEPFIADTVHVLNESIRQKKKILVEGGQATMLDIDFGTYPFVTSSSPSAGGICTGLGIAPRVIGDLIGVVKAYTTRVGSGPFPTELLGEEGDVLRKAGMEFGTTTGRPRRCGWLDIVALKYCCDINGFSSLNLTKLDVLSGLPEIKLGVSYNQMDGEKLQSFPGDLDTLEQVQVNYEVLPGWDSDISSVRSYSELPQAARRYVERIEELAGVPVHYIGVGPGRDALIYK
Procedure: as §1, with “Fractions containing activity are pooled and the proteins concentrated by ultrafiltration. At this stage, the enzyme is suitable for high capacity screening tests that are designed to discover inhibitory compounds. Alternatively, hydrophobic interaction chromatography can be used instead of DEAE-cellulose. This material is optionally further purified by passage through a column of Sephadex G-75 equilibrated with the chromatography buffer described above. The peak of ADSS activity elutes at a retention volume corresponding to a molecular weight of approximately 50,000 Da.” left out
ADSS is assayed by anion exchange HPLC and by a continuous spectrophotometric assay. […] The column eluate is monitored at 270 nm using a Perkin-Elmer LC 480 diode array detector. Integrated peaks are quantified from standard curves. Identity of the products of the ADSS reaction, GDP and adenylosuccinate, are determined by comparing their retention times and spectra with those of authentic standards, purchased from Sigma Chemical Co.
(§2) For the spectrophotometric assay, reaction mixtures are the same as above, except that the volume is doubled. […] This method of quantification was validated using the HPLC method.

[3] = molecular target: T3, ADSS from rat liver (Rattus norvegicus, UniProt D4AEP0); test: ADSS enzyme assay, rat liver ADSS; assay type: biochemical; settings: rat liver ADSS (FIG. 6); for product formation by ADSS: compound at 100 μM
T3 construct: from tissue; host or cells: rat liver
T3 sequence (D4AEP0 1-456): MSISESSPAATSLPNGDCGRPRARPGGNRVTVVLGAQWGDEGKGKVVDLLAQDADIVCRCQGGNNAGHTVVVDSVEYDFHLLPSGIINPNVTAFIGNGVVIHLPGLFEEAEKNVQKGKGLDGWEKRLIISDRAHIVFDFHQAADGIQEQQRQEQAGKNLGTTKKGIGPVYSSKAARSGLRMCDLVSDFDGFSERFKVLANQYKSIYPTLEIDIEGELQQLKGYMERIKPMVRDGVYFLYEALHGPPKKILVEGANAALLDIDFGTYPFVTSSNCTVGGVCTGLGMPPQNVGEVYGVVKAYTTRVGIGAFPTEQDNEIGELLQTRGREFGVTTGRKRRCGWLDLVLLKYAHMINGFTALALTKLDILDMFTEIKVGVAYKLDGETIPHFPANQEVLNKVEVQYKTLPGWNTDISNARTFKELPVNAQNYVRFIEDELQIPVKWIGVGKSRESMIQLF
Procedure: as §1
(§3) ADSS is assayed by anion exchange HPLC and by a continuous spectrophotometric assay. For the former, enzyme is diluted appropriately with 50 mM EPPS, pH 8.3, 10% ethylene glycol, 10 mM potassium phosphate and 1 mM MgCl2 to a volume of 92 μL. […] The column eluate is monitored at 270 nm using a Perkin-Elmer LC 480 diode array detector. Integrated peaks are quantified from standard curves. Identity of the products of the ADSS reaction, GDP and adenylosuccinate, are determined by comparing their retention times and spectra with those of authentic standards, purchased from Sigma Chemical Co.
as §2

[4] = molecular target: T4, ADSS from E. coli (Escherichia coli, UniProt P0A7D4); test: ADSS enzyme assay, E. coli ADSS; assay type: biochemical; settings: E. coli ADSS (FIG. 6); for product formation by ADSS: compound at 100 μM
T4 construct: endogenous in cells; host or cells: E. coli
T4 sequence (P0A7D4 2-432): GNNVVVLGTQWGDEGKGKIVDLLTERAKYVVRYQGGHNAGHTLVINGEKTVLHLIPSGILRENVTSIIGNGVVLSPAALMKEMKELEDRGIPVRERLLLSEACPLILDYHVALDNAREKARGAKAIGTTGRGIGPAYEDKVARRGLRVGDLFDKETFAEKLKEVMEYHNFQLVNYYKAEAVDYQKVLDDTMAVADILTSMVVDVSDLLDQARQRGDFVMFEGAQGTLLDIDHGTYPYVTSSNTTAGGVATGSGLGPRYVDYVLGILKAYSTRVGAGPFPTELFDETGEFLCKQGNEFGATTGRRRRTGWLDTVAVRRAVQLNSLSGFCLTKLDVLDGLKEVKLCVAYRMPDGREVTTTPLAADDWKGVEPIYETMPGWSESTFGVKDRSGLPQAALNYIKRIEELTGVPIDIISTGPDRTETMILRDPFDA
Procedure: as §1, §3, §2

[5] = system: Arabidopsis seeds; test: Arabidopsis bioassay, determination of the lethal concentration (LC 90); settings: read-out: lethal concentration (LC 90); concentration causing 90% or greater growth inhibition vs control; 7 days, about 28° C.
[6] = system: adenylosuccinate lyase (ASL); test: Assay of adenylosuccinate lyase (ASL); assay type: biochemical, Zea mays; settings: 1 mM concentration (data not shown)
Procedure: ASL is obtained from three day old, etiolated seedlings of Zea mays (maize). Seedlings are homogenized in a Waring blender with an equal volume (grams of tissue=mls of buffer) of 20 mM potassium phosphate buffer (KP buffer) containing 1 mM DTT. The slurry is then filtered through a cheese cloth and the filtrate subjected to 100,000×g centrifugation for 60 minutes. The clear supernatant is used for assaying ASL activity.
A typical reaction mixture in 1 mL contains 100-300 μL of ASL and 0.15 mM adenylosuccinate (30 μL of a 5 mM solution in KP buffer), the rest being KP buffer. Disappearance of absorbance at 280 nm is followed as a function of time to determine the rate of ASL activity. Inhibitors when needed are included to a final concentration of 1 mM in the assay mixture to observe the effect on the ASL activity. Compounds hydantocidin, N-acetylhydantocidin, NAP-H and hadacidin had no effect on the rate of ASL activity at 1 mM concentration (data not shown).

[7] = system: Arabidopsis seeds; test: Arabidopsis reversal assay with antidote compounds; assay type: in vivo; settings: for Growth, % of Control: probe compound at 1.5× lethal concentration; for growth without the antidote (in words): probe compound alone, no antidote
Procedure: The solutions are filter sterilized prior to addition. FIG. 4 represents a typical set up in a reversion assay for discovering inhibitors of AMP biosynthesis.
The left side (columns 1-3) of the 24-well microtiter plate is designed for controls, and the right side (columns 4-6) are designated for one probe compound. […] Rows B,C and D are supplemented with three doses of an antidote for the control and probe compound. […] The three doses are 50,100 and 150 μl respectively.
Forty ml of Arabidopsis growth media as described in Example 1 is sterilized and allowed to cool to about 45° C. A probe compound (at 1.5× lethal concentration) is added to columns 4 through 6 (right half of the plate). Media is distributed at 1.0 ml per well to all wells. Sterile seeds are added to each well as described above. As in Example 1, the plate is incubated and growth is scored.

[8] = molecular target: T1, adenylosuccinate synthetase (ADSS) isolated from maize; settings: known from the literature; cited from earlier work
[9] = antidote Adenosine + Guanosine 0.5-5.0 mM
[10] = antidote Cytidine + Uridine 0.5-5.0 mM
[11] = antidote Hypoxanthine 0.5-5.0 mM

| Compound | product formation by ADSS [1] | time course of ADSS inhibition [1] | product formation by ADSS [2] | product formation by ADSS [3] | product formation by ADSS [4] | IC90 [5] [µM] | effect on the rate of ASL activity [6] | Growth, % of Control ([7]; No antidote, 0 mM) [%] | Growth, % of Control ([7]; antidote ADP 0.5-5.0 mM) [%] | Growth, % of Control ([7]; antidote AMP 0.5-5.0 mM) [%] | Growth, % of Control ([7]; antidote ATP 0.5-5.0 mM) [%] | Growth, % of Control ([7]; antidote Adenine 0.5-5.0 mM) [%] | Growth, % of Control ([7]; antidote Adenosine 0.5-5.0 mM) | Growth, % of Control [7, 9] [%] | Growth, % of Control [7, 10] [%] | Growth, % of Control ([7]; antidote Guanine 0.5-5.0 mM) [%] | Growth, % of Control ([7]; antidote Guanosine 0.5-5.0 mM) [%] | Growth, % of Control [7, 11] [%] | Growth, % of Control ([7]; antidote IMP 0.5-5.0 mM) [%] | growth without the antidote (in words) [7] | further results |
| --- | --- | --- | --- | --- | --- | --- | --- | --- | --- | --- | --- | --- | --- | --- | --- | --- | --- | --- | --- | --- | --- |
| 5'-Phospho-N-acetyl-hydantocidin [NAP-H] | Product is not formed | Inhibition is initially weak, but becomes greater | Product is not formed | Product is not formed | Product is not formed | ~8 | no effect | 0 | 100 | 100 | 40 | 65 | 80-100% | 80 | 0 | 0 | 0 | 0 | 5 | Growth is not observed | inhibition of ADSS (in words) ([1]; 5 μM, spectrophotometric assay): is confirmed; reversibility of ADSS inhibition ([1]; enzyme incubated with 4 μM for 10 min, then Sephadex G-25): inhibition is reversible; inhibition of ADSS (in words) ([2]; 10 μM, crude (desalted) extract from wheat germ, HPLC assay (FIG. 5)): Inhibition of ADSS |
| COc1c(C)c2c(c(O)c1C/C=C(\C)CCC(=O)O)C(=O)OC2 [MPA, Mycophenolic Acid] |  |  |  |  |  |  |  | 0 |  | 5 |  | 0 | 5% |  |  | 40 | 80 |  | 5 | Growth is not observed | Growth, % of Control ([7]; antidote GMP 0.5-5.0 mM): 90% |
| NC(=O)c1ncn([C@@H]2O[C@H](CO)[C@@H](O)[C@H]2O)n1 [TCR, 1,2,4-triazole-3-carboxamide-1-ribose] |  |  |  |  |  |  |  |  |  |  |  |  |  |  |  |  |  |  |  | Growth is not observed |  |
| O=CN(O)CC(=O)O [hadacidin] | Product is not formed | not time dependent | Product is not formed | Product is not formed | Product is not formed |  | no effect | 0 | 100 | 100 | 40 | 55 | 80-100% | 80 | 0 | 0 | 0 | 0 | 5 | Growth is not observed | IC50 ([1]; "under these conditions", ADSS source not given): 3 µM; mode of ADSS inhibition [8]: competitively with aspartate |
| N-acetyl hydantocidin |  |  |  |  |  | ~12 | no effect | 0 | 100 | 100 | 40 | 60 | 80-100% | 80 | 0 | 0 | 0 | 0 | 5 | Growth is not observed | inhibition of ADSS (in words) [3]: neither the E. coli nor the rat liver ADSS are inhibited; inhibition of ADSS (in words) [4]: neither the E. coli nor the rat liver ADSS are inhibited |

Reference: patent US5780254A, “Method for detection of herbicides” (Sandoz Ltd, priority 1996, dated 1998)
